Experimental data: ChEMBL document CHEMBL3822420, “New peptide deformylase inhibitors design, synthesis and pharmacokinetic assessment” (Bioorg Med Chem Lett, 2016)
Values after ≈ are worked out from the molar mass of the structure shown.

Experiments:
Type in all cases: functional
[1] = system: Staphylococcus aureus; experiment: Antibacterial activity against methicillin-resistant Staphylococcus aureus 14-1
[2] = system: Staphylococcus epidermidis; experiment: Antibacterial activity against methicillin-resistant Staphylococcus epidermidis 14-1
[3] = system: Enterococcus faecalis; experiment: Antibacterial activity against Enterococcus faecalis 14-2
[4] = system: Staphylococcus aureus; experiment: Antibacterial activity against methicillin-sensitive Staphylococcus aureus 14-2
[5] = system: Staphylococcus epidermidis; experiment: Antibacterial activity against methicillin-sensitive Staphylococcus epidermidis 14-1
[6] = system: Escherichia coli; experiment: Antibacterial activity against Escherichia coli 14-1
[7] = system: Escherichia coli; experiment: Antibacterial activity against Escherichia coli 14-1 expressing extended-spectrum beta-lactamase
[8] = system: Staphylococcus epidermidis; experiment: Antibacterial activity against methicillin-sensitive Staphylococcus epidermidis 14-2
[9] = system: Staphylococcus epidermidis; experiment: Antibacterial activity against methicillin-resistant Staphylococcus epidermidis 14-4
[10] = system: Enterococcus faecalis; experiment: Antibacterial activity against Enterococcus faecalis 14-5
[11] = system: Staphylococcus aureus; experiment: Antibacterial activity against methicillin-sensitive Staphylococcus aureus 14-3
[12] = system: Staphylococcus epidermidis; experiment: Antibacterial activity against methicillin-resistant Staphylococcus epidermidis 14-3
[13] = system: Enterococcus faecalis; experiment: Antibacterial activity against Enterococcus faecalis 14-1
[14] = system: Staphylococcus epidermidis; experiment: Antibacterial activity against methicillin-resistant Staphylococcus epidermidis 14-2
[15] = system: Staphylococcus aureus; experiment: Antibacterial activity against methicillin-resistant Staphylococcus aureus 14-5
[16] = system: Staphylococcus aureus; experiment: Antibacterial activity against methicillin-sensitive Staphylococcus aureus 14-4
[17] = system: Escherichia coli; experiment: Antibacterial activity against Escherichia coli 14-2
[18] = system: Staphylococcus aureus; experiment: Antibacterial activity against methicillin-resistant Staphylococcus aureus 14-4
[19] = system: Staphylococcus epidermidis; experiment: Antibacterial activity against methicillin-sensitive Staphylococcus epidermidis 14-3
[20] = system: Staphylococcus aureus; experiment: Antibacterial activity against methicillin-sensitive Staphylococcus aureus 14-1
[21] = system: Enterococcus faecalis; experiment: Antibacterial activity against Enterococcus faecalis 14-3
[22] = system: Staphylococcus aureus; experiment: Antibacterial activity against methicillin-resistant Staphylococcus aureus 14-2
[23] = system: Escherichia coli; experiment: Antibacterial activity against Escherichia coli 14-2 expressing extended-spectrum beta-lactamase

SMILES	MIC [1]	MIC [2]	MIC [3]	MIC [4]	MIC [5]	MIC [7]	MIC [8]	MIC [9]	MIC [10]	MIC [11]	MIC [13]	MIC [14]	MIC [15]	MIC [16]	MIC [18]	MIC [19]	MIC [20]	MIC [21]	MIC [22]	MIC [23]	other results
CCCC[C@H](CN(O)C=O)C(=O)N1CC2(CC2)C[C@H]1c1nnc2ccccn12	1 µg/mL (≈ 2.59 µM)	0.5 µg/mL (≈ 1.3 µM)	8 µg/mL (≈ 20.8 µM)	1 µg/mL (≈ 2.59 µM)	0.25 µg/mL (≈ 0.649 µM)	2 µg/mL (≈ 5.19 µM)	0.5 µg/mL (≈ 1.3 µM)	1 µg/mL (≈ 2.59 µM)	8 µg/mL (≈ 20.8 µM)	1 µg/mL (≈ 2.59 µM)	4 µg/mL (≈ 10.4 µM)	0.5 µg/mL (≈ 1.3 µM)	1 µg/mL (≈ 2.59 µM)	1 µg/mL (≈ 2.59 µM)	1 µg/mL (≈ 2.59 µM)	0.5 µg/mL (≈ 1.3 µM)	1 µg/mL (≈ 2.59 µM)	8 µg/mL (≈ 20.8 µM)	1 µg/mL (≈ 2.59 µM)	128 µg/mL (≈ 332 µM)	MIC [6]: 128 µg/mL (≈ 332 µM); MIC [12]: 0.25 µg/mL (≈ 0.649 µM); MIC [17]: 128 µg/mL (≈ 332 µM)
CCCC[C@H](CN(O)C=O)C(=O)N1CC2(CC2)C[C@H]1C(=O)Nc1cccc(Nc2ncccn2)c1	0.25 µg/mL (≈ 0.52 µM)	0.125 µg/mL (≈ 0.26 µM)	1 µg/mL (≈ 2.08 µM)	0.25 µg/mL (≈ 0.52 µM)	0.125 µg/mL (≈ 0.26 µM)	1 µg/mL (≈ 2.08 µM)	0.25 µg/mL (≈ 0.52 µM)	0.25 µg/mL (≈ 0.52 µM)	1 µg/mL (≈ 2.08 µM)	0.25 µg/mL (≈ 0.52 µM)	0.5 µg/mL (≈ 1.04 µM)	0.25 µg/mL (≈ 0.52 µM)	0.125 µg/mL (≈ 0.26 µM)	0.125 µg/mL (≈ 0.26 µM)	0.25 µg/mL (≈ 0.52 µM)	0.125 µg/mL (≈ 0.26 µM)	0.25 µg/mL (≈ 0.52 µM)	1 µg/mL (≈ 2.08 µM)	0.25 µg/mL (≈ 0.52 µM)	64 µg/mL (≈ 133 µM)	MIC [6]: 128 µg/mL (≈ 266 µM); MIC [12]: 0.06 µg/mL (≈ 0.125 µM); MIC [17]: 128 µg/mL (≈ 266 µM)
CO/N=C(\C(=O)N[C@@H]1C(=O)N2C(C(=O)[O-])=CCS[C@H]12)c1csc(N)n1.[Na+] [CEFTIZOXIME SODIUM]	128 µg/mL	128 µg/mL	> 128 µg/mL	4 µg/mL	32 µg/mL	1 µg/mL	64 µg/mL	32 µg/mL	> 128 µg/mL	4 µg/mL	> 128 µg/mL	128 µg/mL	64 µg/mL	2 µg/mL	128 µg/mL	> 128 µg/mL	4 µg/mL	> 128 µg/mL	64 µg/mL	32 µg/mL	MIC [6]: 4 µg/mL; MIC [17]: 4 µg/mL
CCCC[C@H](CN(O)C=O)C(=O)N1CCC[C@H]1C(=O)Nc1ccc(F)c[n+]1[O-]	1 µg/mL (≈ 2.52 µM)	0.125 µg/mL (≈ 0.315 µM)	2 µg/mL (≈ 5.05 µM)	0.5 µg/mL (≈ 1.26 µM)	0.06 µg/mL (≈ 0.151 µM)	1 µg/mL (≈ 2.52 µM)	0.5 µg/mL (≈ 1.26 µM)	0.125 µg/mL (≈ 0.315 µM)	128 µg/mL (≈ 323 µM)	0.5 µg/mL (≈ 1.26 µM)	2 µg/mL (≈ 5.05 µM)	0.125 µg/mL (≈ 0.315 µM)	0.5 µg/mL (≈ 1.26 µM)	0.5 µg/mL (≈ 1.26 µM)	1 µg/mL (≈ 2.52 µM)	0.06 µg/mL (≈ 0.151 µM)	0.5 µg/mL (≈ 1.26 µM)	2 µg/mL (≈ 5.05 µM)	1 µg/mL (≈ 2.52 µM)	64 µg/mL (≈ 161 µM)	MIC [6]: 64 µg/mL (≈ 161 µM); MIC [12]: 0.06 µg/mL (≈ 0.151 µM); MIC [17]: 64 µg/mL (≈ 161 µM)
C[C@H]1COc2c(N3CCN(C)CC3)c(F)cc3c(=O)c(C(=O)O)cn1c23.C[C@H]1COc2c(N3CCN(C)CC3)c(F)cc3c(=O)c(C(=O)O)cn1c23.O [LEVOFLOXACIN]	128 µg/mL	16 µg/mL	4 µg/mL	0.5 µg/mL	0.5 µg/mL	32 µg/mL	0.5 µg/mL	16 µg/mL	2 µg/mL	32 µg/mL	2 µg/mL	16 µg/mL	> 128 µg/mL	16 µg/mL	> 128 µg/mL	0.5 µg/mL	16 µg/mL	2 µg/mL	> 128 µg/mL	64 µg/mL	MIC [12]: 16 µg/mL
